Laboratory results as given in US8222202B2 (priority 2006, dated 2012).
Where two headings read alike, the source gives them in different places. Positions of bridges follow the written chain, without caps; N, C: chain ends. Non-standard residues stand in square brackets, D forms with d. Residues, ends and D or L forms follow the SMILES beside them. Orn(Pr) = CCCNCCC[C@H](N)C(=O)O

Tests used:
[1] = target: T1, hV1a receptor (Homo sapiens, UniProt P37288); test: hV1a receptor transcriptional reporter (luciferase) agonist assay; type: cell-based
T1 construct: expressed in transfected cells; host or cells: HEK-293

[2] = target: T2, human oxytocin (hOT) receptor (Homo sapiens, UniProt P30559); test: luciferase-based transcriptional reporter assay, selectivity hOT versus hV1a; type: cell-based
T2 construct: expressed in transfected cells
T2 sequence (P30559 1-389): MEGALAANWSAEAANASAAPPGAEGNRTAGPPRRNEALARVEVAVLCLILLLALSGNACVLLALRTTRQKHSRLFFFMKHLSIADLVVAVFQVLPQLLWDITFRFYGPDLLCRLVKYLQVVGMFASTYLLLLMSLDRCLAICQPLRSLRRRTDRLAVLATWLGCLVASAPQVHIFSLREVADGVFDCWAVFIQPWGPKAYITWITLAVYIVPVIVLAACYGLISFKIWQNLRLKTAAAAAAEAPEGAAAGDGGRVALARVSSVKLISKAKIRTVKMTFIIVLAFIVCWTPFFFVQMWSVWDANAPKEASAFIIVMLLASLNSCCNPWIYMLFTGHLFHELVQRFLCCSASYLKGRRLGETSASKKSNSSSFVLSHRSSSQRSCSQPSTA

[3] = tested on: anaesthetised Sprague-Dawley male rats; test: in vivo duration of action, blood pressure test in anaesthetised rats; set-up: species or system rat; conditions: ratio of decay rate of diastolic blood pressure response, AVP 0.1 nmol/kg i.v. to equieffective dose of compound; dibenamine-pretreated rats
Protocol: Blood pressure tests were carried out on anaesthetised Sprague-Dawley male rats (weighing 270-300 g) with catheterised jugular vein and carotid artery. The catheterised carotid artery was used to continuously monitor blood pressure and the jugular vein was used for administration of the compounds tested. Rats received intravenous injections of dibenamine prior to dosing to enhance their responsiveness to V1a receptor agonists (cf. Dekanski, J., Br. J. Pharmacol. 1952, 7, 567-572). […] Dosing intervals were set as time for the blood pressure to decrease to a stable baseline.
Determination of duration of action was based on the decay rate of diastolic arterial blood pressure transient increase. Specifically, for an exponential decay of plasma concentration, it can be shown that, if the response is measured beyond the distribution phase, the rate of decay near the EC50 is linear and inversely proportional to the elimination half-life (Rowland, M. and Tozer, T. in “Clinical Pharmacokinetics, Concepts and Applications”, 3rd ed., Lippincott Williams & Wilkins, Philadelphia, 1995).

T1 sequence (P37288 whole entry): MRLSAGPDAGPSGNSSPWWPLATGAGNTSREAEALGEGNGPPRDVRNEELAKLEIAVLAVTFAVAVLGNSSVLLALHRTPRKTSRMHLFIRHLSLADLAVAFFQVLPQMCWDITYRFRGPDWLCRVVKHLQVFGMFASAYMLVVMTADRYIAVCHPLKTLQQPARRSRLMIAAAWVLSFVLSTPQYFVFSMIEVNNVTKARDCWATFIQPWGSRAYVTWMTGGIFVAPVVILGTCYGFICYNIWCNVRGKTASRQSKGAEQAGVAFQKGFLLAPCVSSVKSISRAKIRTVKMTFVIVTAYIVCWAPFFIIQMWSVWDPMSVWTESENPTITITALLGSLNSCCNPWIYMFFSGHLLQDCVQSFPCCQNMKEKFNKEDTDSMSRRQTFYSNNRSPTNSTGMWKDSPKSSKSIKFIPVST

Compound | EC50 ([1]; HEK-293 cells transiently transfected with hV1a receptor, 5 hours exposure, geometric mean, read-out: EC50 hV1a receptor) [nM] | selectivity hOT/hV1a ([2]; EC50 ratio) | in vivo duration relative to AVP [3] | EC50 [1] [nM] | selectivity hOT/hV1a ([2]; class symbol, agonist efficacy at hOT receptor compared to AVP)
CCCNCCC[C@H](NC(=O)[C@@H]1CCCN1C(=O)[C@@H]1CSSC[C@H](N)C(=O)N[C@@H](Cc2ccccc2)C(=O)N[C@@H]([C@@H](C)CC)C(=O)N[C@@H](CC(N)=O)C(=O)N[C@@H](CC(N)=O)C(=O)N1)C(=O)NCC(N)=O [Compound 50] (H-CFINNCP[Orn(Pr)]G-NH2; disulfide 1-6; N-terminus and C-terminus assumed) | 1.52 | 43 | 2.4 | – | –
NCCCC[C@H](NC(=O)[C@@H]1CCCN1C(=O)[C@@H]1CSSC[C@H](NC(=O)CNC(=O)CNC(=O)CN)C(=O)N[C@@H](Cc2ccc(O)cc2)C(=O)N[C@@H](Cc2ccccc2)C(=O)N[C@@H](CCC(N)=O)C(=O)N[C@@H](CC(N)=O)C(=O)N1)C(=O)NCC(N)=O [terlipressin, reference compound] (H-GGGCYFQNCPKG-NH2; disulfide 4-9) | – | – | 9.1 | 82.1 | + (selective hV1a receptor agonist; EC50 hOT/hV1a ratio not determined due to very low agonist efficacy (<30% compared to AVP) at the hOT receptor)
